≈ marks a conversion by molar mass, not a printed value.
Legend:
Apis mellifera = conditions: acute; duration: 48 hours; dermal; mortality
Daphnia magna = conditions: chronic/long-term; duration: 21 days; reproduction
Lepomis macrochirus = conditions: acute; duration: 96 hours; mortality
Oryctolagus sp. = conditions: reproduction developmental; body weight
Pimephales promelas = conditions: chronic/long-term; duration: 265 days; growth
Aphidius rhopalosiphi = test: LR50; higher = less toxic; conditions: not reported; mortality
Bibionidae = conditions: chronic/long-term; duration: 28 days

SMILES	NOEC (Anas platyrhynchos; reproductive)	LC50 (Anas platyrhynchos; short-term, oral, feed, mortality)	LD50 (Apis mellifera)	LC50 (Colinus virginianus; acute, oral, diet, mortality)	LD50 (Colinus virginianus; acute, oral, mortality)	NOEC (Colinus virginianus; reproduction developmental)	NOEC (Daphnia magna)	LC50 (Lepomis macrochirus)	NOAEL (Oryctolagus sp.)	NOEC (Pimephales promelas)	LD50 (Rattus norvegicus; acute, oral, mortality)	NOEL (Rattus norvegicus; chronic)	LOAEL (Rattus norvegicus; chronic, duration: 2 years, histopathology: nonneoplastic)	NOAEL (Rattus norvegicus; reproduction developmental, no effects)	LC50 (Tagia sp.; acute, duration: 14 days, mortality)	LR50 (Aphidius rhopalosiphi)	NOEC (Bibionidae)	NOEC (Tagia sp.; chronic/long-term, duration: 56 days)
COC(=O)C(C)Oc1ccc(Oc2ccc(Cl)cc2Cl)cc1 (racemic) [(+-)-Diclofop-methyl]	25 mg/kg-day	> 1100 mg/kg-day	> 100 µg/piece	> 2880 mg/kg-day	> 2250 mg/kg-day	20 mg/kg-day	0.081 mg/L	0.15 µg/mL (≈ 0.44 µM)	0.3 mg/kg-day	0.015 mg/L	512 mg/kg-day	7.8 mg/kg-day	0.2 mg/kg-day	3 mg/kg-day	> 1000 mg/kg	30.1 g/ha	–	–
CC(Oc1ccc(Oc2ccc(Cl)cc2Cl)cc1)C(=O)O (stereo not drawn) [Diclofop]	–	–	–	–	–	–	–	–	–	–	–	–	–	–	–	–	10 mg/L	100 mg/kg

— EPA's ToxValDB 9.5 (doi:10.2903/j.efsa.2010.1718)
